Results as given in ChEMBL document CHEMBL3885881, “DrugMatrix”.

Species: Rattus norvegicus
Assay type: toxicity, organism-based, Sprague-Dawley
Conditions: in vivo, po, route oral GAVAGE, […]; for ABSOLUTE EOSINOPHIL / ABSOLUTE LYMPHOCYTE / ABSOLUTE MONOCYTE / ABSOLUTE SEGMENTED NEUTROPHIL / BASOPHIL / EOSINOPHIL / ERYTHROCYTE COUNT / HEMATOCRIT / HEMOGLOBIN / LEUKOCYTE COUNT / LYMPHOCYTE / MEAN CORPUSCULAR HEMOGLOBIN / MEAN CORPUSCULAR HEMOGLOBIN CONCENTRATION / MEAN CORPUSCULAR VOLUME / MONOCYTE / NEUTROPHIL / NUCLEATED RED BLOOD CELLS / PLATELET COUNT: tissue Blood; for ALANINE AMINOTRANSFERASE / ALBUMIN / ALKALINE PHOSPHATASE / ASPARTATE AMINOTRANSFERASE / BLOOD UREA NITROGEN / CARBON DIOXIDE / CHLORIDE / CHOLESTEROL / CREATINE PHOSPHOKINASE / CREATININE / GLUCOSE / LACTATE DEHYDROGENASE / LIPASE / PHOSPHORUS / POTASSIUM / SODIUM / TOTAL BILIRUBIN / TOTAL PROTEIN / URIC ACID: tissue Plasma
[1] = 30 mg/kg, 24 h, dose level Low, time 1 day
[2] = 60 mg/kg, 6 h, dose level High, time 0.25 day
[3] = 60 mg/kg, 24 h, dose level High, time 1 day

Description: DrugMatrix - Regimen: Single

S=C=Nc1cccc2ccccc12 [1-NAPHTHYLISOTHIOCYANATE]
ABSOLUTE EOSINOPHIL [1]: 0 CELLS/uL
ABSOLUTE LYMPHOCYTE [1]: 8784 CELLS/uL
ABSOLUTE MONOCYTE [1]: 359.5 CELLS/uL
ABSOLUTE SEGMENTED NEUTROPHIL [1]: 2189.83 CELLS/uL
BASOPHIL [1]: 0%
EOSINOPHIL [1]: 0%
ERYTHROCYTE COUNT [1]: 5.45 x10E6/uL
HEMATOCRIT [1]: 34.5%
HEMOGLOBIN [1]: 13.67 G/DL
LEUKOCYTE COUNT [1]: 11.33 x10E3/uL
LYMPHOCYTE [1]: 78.33%
MEAN CORPUSCULAR HEMOGLOBIN [1]: 25.1 pg
MEAN CORPUSCULAR HEMOGLOBIN CONCENTRATION [1]: 39.62 G/DL
MEAN CORPUSCULAR VOLUME [1]: 63.35 fL
MONOCYTE [1]: 2.83%
NEUTROPHIL [1]: 18.83%
NUCLEATED RED BLOOD CELLS [1]: 0 /100WBC
PLATELET COUNT [1]: 1092.83 x10E3/uL
ALANINE AMINOTRANSFERASE [1]: 122 u/L
ALBUMIN [1]: 3.92 G/DL
ALKALINE PHOSPHATASE [1]: 386.33 u/L
ASPARTATE AMINOTRANSFERASE [1]: 211 u/L
BLOOD UREA NITROGEN [1]: 11.67 mg/dL
CARBON DIOXIDE [1]: 35.83 mmol/L
CHLORIDE [1]: 97.33 MEQ/L
CHOLESTEROL [1]: 83.5 mg/dL
CREATINE PHOSPHOKINASE [1]: 327.33 u/L
CREATININE [1]: 0.3 mg/dL
GLUCOSE [1]: 139.33 mg/dL
LACTATE DEHYDROGENASE [1]: 171 u/L
LIPASE [1]: 9.33 u/L
PHOSPHORUS [1]: 9.87 mg/dL
POTASSIUM [1]: 4.44 MEQ/L
SODIUM [1]: 145.25 MEQ/L
TOTAL BILIRUBIN [1]: 1.02 mg/dL
TOTAL PROTEIN [1]: 6.05 G/DL
URIC ACID [1]: 0.5 mg/dL
ABSOLUTE EOSINOPHIL [2]: 98.5 CELLS/uL
ABSOLUTE LYMPHOCYTE [2]: 11852.33 CELLS/uL
ABSOLUTE MONOCYTE [2]: 375.83 CELLS/uL
ABSOLUTE SEGMENTED NEUTROPHIL [2]: 1556.67 CELLS/uL
BASOPHIL [2]: 0%
EOSINOPHIL [2]: 0.67%
ERYTHROCYTE COUNT [2]: 5.41 x10E6/uL
HEMATOCRIT [2]: 36.93%
HEMOGLOBIN [2]: 13.93 G/DL
LEUKOCYTE COUNT [2]: 13.88 x10E3/uL
LYMPHOCYTE [2]: 84.83%
MEAN CORPUSCULAR HEMOGLOBIN [2]: 25.75 pg
MEAN CORPUSCULAR HEMOGLOBIN CONCENTRATION [2]: 37.73 G/DL
MEAN CORPUSCULAR VOLUME [2]: 68.25 fL
MONOCYTE [2]: 2.67%
NEUTROPHIL [2]: 11.83%
NUCLEATED RED BLOOD CELLS [2]: 0 /100WBC
PLATELET COUNT [2]: 1029 x10E3/uL
ALANINE AMINOTRANSFERASE [2]: 53.6 u/L
ALBUMIN [2]: 4.36 G/DL
ALKALINE PHOSPHATASE [2]: 315.4 u/L
ASPARTATE AMINOTRANSFERASE [2]: 106 u/L
BLOOD UREA NITROGEN [2]: 9.8 mg/dL
CARBON DIOXIDE [2]: 17.2 mmol/L
CHLORIDE [2]: 104.6 MEQ/L
CHOLESTEROL [2]: 74.6 mg/dL
CREATINE PHOSPHOKINASE [2]: 475 u/L
CREATININE [2]: 0.21 mg/dL
GLUCOSE [2]: 258.8 mg/dL
LACTATE DEHYDROGENASE [2]: 229.4 u/L
LIPASE [2]: 11 u/L
PHOSPHORUS [2]: 16.5 mg/dL
POTASSIUM [2]: 5.82 MEQ/L
SODIUM [2]: 145.04 MEQ/L
TOTAL BILIRUBIN [2]: 0.22 mg/dL
TOTAL PROTEIN [2]: 5.82 G/DL
URIC ACID [2]: 2.54 mg/dL
ABSOLUTE EOSINOPHIL [3]: 30 CELLS/uL
ABSOLUTE LYMPHOCYTE [3]: 8567.5 CELLS/uL
ABSOLUTE MONOCYTE [3]: 316 CELLS/uL
ABSOLUTE SEGMENTED NEUTROPHIL [3]: 2953.17 CELLS/uL
BASOPHIL [3]: 0%
EOSINOPHIL [3]: 0.33%
ERYTHROCYTE COUNT [3]: 5.57 x10E6/uL
HEMATOCRIT [3]: 34.8%
HEMOGLOBIN [3]: 13.72 G/DL
LEUKOCYTE COUNT [3]: 11.87 x10E3/uL
LYMPHOCYTE [3]: 71.17%
MEAN CORPUSCULAR HEMOGLOBIN [3]: 24.67 pg
MEAN CORPUSCULAR HEMOGLOBIN CONCENTRATION [3]: 39.42 G/DL
MEAN CORPUSCULAR VOLUME [3]: 62.55 fL
MONOCYTE [3]: 2.67%
NEUTROPHIL [3]: 25.83%
NUCLEATED RED BLOOD CELLS [3]: 0 /100WBC
PLATELET COUNT [3]: 1101.5 x10E3/uL
ALANINE AMINOTRANSFERASE [3]: 142.33 u/L
ALBUMIN [3]: 3.88 G/DL
ALKALINE PHOSPHATASE [3]: 513.83 u/L
ASPARTATE AMINOTRANSFERASE [3]: 288 u/L
BLOOD UREA NITROGEN [3]: 11.17 mg/dL
CARBON DIOXIDE [3]: 34.17 mmol/L
CHLORIDE [3]: 95.83 MEQ/L
CHOLESTEROL [3]: 118 mg/dL
CREATINE PHOSPHOKINASE [3]: 254.17 u/L
CREATININE [3]: 0.34 mg/dL
GLUCOSE [3]: 133.33 mg/dL
LACTATE DEHYDROGENASE [3]: 241.83 u/L
LIPASE [3]: 80.33 u/L
PHOSPHORUS [3]: 10.95 mg/dL
POTASSIUM [3]: 3.66 MEQ/L
SODIUM [3]: 144.63 MEQ/L
TOTAL BILIRUBIN [3]: 2.2 mg/dL
TOTAL PROTEIN [3]: 6.13 G/DL
URIC ACID [3]: 0.45 mg/dL
